In BindingDB's records for patent US20230303547 (Mission Therapeutics, 2023):

molecular target: T1, Ubiquitin carboxyl-terminal hydrolase 30 (Homo sapiens, UniProt Q70CQ3); experiment: USP30 Biochemical IC50 Assay
T1 sequence (Q70CQ3 whole entry): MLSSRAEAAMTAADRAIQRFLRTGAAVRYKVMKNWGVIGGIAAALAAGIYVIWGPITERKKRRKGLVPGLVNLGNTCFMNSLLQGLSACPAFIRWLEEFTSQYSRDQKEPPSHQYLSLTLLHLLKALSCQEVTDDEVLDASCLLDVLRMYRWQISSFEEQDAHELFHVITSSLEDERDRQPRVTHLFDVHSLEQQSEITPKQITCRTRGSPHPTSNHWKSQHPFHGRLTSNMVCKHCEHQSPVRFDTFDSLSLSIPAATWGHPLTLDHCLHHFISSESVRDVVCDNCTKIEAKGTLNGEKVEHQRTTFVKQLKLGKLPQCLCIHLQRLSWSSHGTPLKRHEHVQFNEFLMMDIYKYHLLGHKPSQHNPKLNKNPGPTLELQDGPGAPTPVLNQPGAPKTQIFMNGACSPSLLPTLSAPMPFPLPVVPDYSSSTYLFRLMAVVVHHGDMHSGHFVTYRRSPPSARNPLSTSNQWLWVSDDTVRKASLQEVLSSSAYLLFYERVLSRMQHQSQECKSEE
Description: Dilution plates were prepared at 21 times the final concentration (2100 µM for a final concentration of 100 µM) in 50% DMSO in a 96-well polypropylene V-bottom plate (Greiner #651201). A typical 8-point dilution series would be 100, 30, 10, 3, 1, 0.3, 0.1, 0.03 µM final. Reactions were performed in duplicate in black 384 well plates (small volume, Greiner 784076) in a final reaction volume of 21 µl. Either 1 µl of 50% DMSO or diluted compound was added to the plate. USP30 (Boston Biochem #E582) was diluted in reaction buffer (40 mM Tris, pH 7.5, 0.005% Tween 20, 0.5 mg/ml BSA, 5 mM beta-mercaptoethanol) to achieve a final assay concentration of 4 nM, and 10 µl of diluted USP30 was added to the compound. Enzyme and compound were incubated for 30 min at room temp. Reactions were initiated by the addition of 50 nM of TAMRA labelled peptide linked to ubiquitin via an iso-peptide bond as fluorescence polarisation substrate. Reactions were read immediately after addition of substrate and following a 2-hour incubation at room temperature. Readings were performed on a Pherastar Plus (BMG Labtech). λ Excitation 540 nm; λ Emission 590 nm.

IC50	SMILES
3 nM	C[C@@H]1C[C@@H](NC(=O)c2ncc(-c3cc(C#N)ccc3OC3CC3)o2)CN1C#N [US20230303547, Example 1]
3 nM	COC[C@@H]1C[C@@H](NC(=O)c2ncc(-c3cc(C#N)ccc3OC3CC3)o2)CN1C#N [US20230303547, Example 2]
1 nM	N#Cc1ccc(OC2CC2)c(-c2cnc(C(=O)N[C@@H]3C[C@@H](CF)N(C#N)C3)o2)c1 [US20230303547, Example 3]
2 nM	COc1ccc(C#N)cc1-c1cnc(C(=O)N[C@@H]2C[C@@H](C)N(C#N)C2)o1 [US20230303547, Example 4]
